Measurements published in ChEMBL document CHEMBL4316614, “Design, synthesis and biological evaluation of 1,4-dihydroxyanthraquinone derivatives as anticancer agents” (Bioorg Med Chem Lett, 2019).
Active and inactive are the calls of the source. The rule behind the calls is not given here.

Tests used:
DNA topoisomerase II [1] = molecular target: T1, DNA topoisomerase II (Homo sapiens, UniProt P11388+Q02880); experiment: Inhibition of topoisomerase 2 in human HeLa cells assessed as reduction in cell growth measured after 72 hrs by MTT assay; assay type: cell-based
DNA topoisomerase II [2] = molecular target: T1, DNA topoisomerase II; experiment: Inhibition of topoisomerase 2 in human HepG2 cells assessed as reduction in cell growth measured after 72 hrs by MTT assay; assay type: cell-based
L02 = experiment: Cytotoxicity against human L02 cells assessed as inhibition of cell growth measured after 72 hrs by MTT assay; assay type: cell-based; settings: L02, 72 h
DNA topoisomerase II [3] = molecular target: T1, DNA topoisomerase II; experiment: Inhibition of topoisomerase 2 in human MCF7 cells assessed as reduction in cell growth measured after 72 hrs by MTT assay; assay type: cell-based
DNA topoisomerase II [4] = molecular target: T1, DNA topoisomerase II; experiment: Inhibition of topoisomerase 2 in human MDA-MB-231 cells assessed as reduction in cell growth measured after 72 hrs by MTT assay; assay type: cell-based
DNA topoisomerase II [5] = molecular target: T1, DNA topoisomerase II; experiment: Inhibition of topoisomerase 2 in human A549 cells assessed as reduction in cell growth measured after 72 hrs by MTT assay; assay type: cell-based
DNA topoisomerase II [6] = molecular target: T1, DNA topoisomerase II; experiment: Inhibition of topoisomerase 2 in human CNE1 cells assessed as reduction in cell growth measured after 72 hrs by MTT assay; assay type: cell-based
HepG2 [7] = experiment: Induction of morphological changes in human HepG2 cells assessed as nuclear shrinkage at 2 to 16 uM by confocal microscopic analysis; assay type: functional, cell-based
HepG2 [8] = experiment: Induction of apoptosis in human HepG2 cells assessed as apoptotic cells at 4 uM measured after 48 hrs by Annexin V-APC staining based flow cytometry (reference value: 5.37%); assay type: functional
HepG2 [9] = experiment: Induction of morphological changes in human HepG2 cells assessed as appearance of foamy nucleus at 2 to 16 uM by confocal microscopic analysis; assay type: functional, cell-based
HepG2 [10] = experiment: Induction of apoptosis in human HepG2 cells assessed as apoptotic cells at 16 uM measured after 48 hrs by Annexin V-APC staining based flow cytometry (reference value: 5.37%); assay type: functional
HepG2 [11] = experiment: Induction of apoptosis in human HepG2 cells assessed as formation of granular apoptotic body formation at 4 to 16 uM measured after 48 hrs by Hoechst 33342 staining based fluorescence microscopic analysis; assay type: functional, cell-based
HepG2 [12] = experiment: Induction of apoptosis in human HepG2 cells assessed as apoptotic cells at 32 uM measured after 48 hrs by Annexin V-APC staining based flow cytometry (reference value: 5.37%); assay type: functional
HepG2 [13] = experiment: Induction of apoptosis in human HepG2 cells measured after 48 hrs by Annexin V-APC staining based flow cytometry; assay type: functional, cell-based
[14] = Drug uptake in nucleus of human HepG2 cells at 2 to 16 uM by confocal microscopic analysis; assay type: ADME, subcellular; settings: hepg2, 16 µM
HepG2 [15] = experiment: Induction of apoptosis in human HepG2 cells assessed as cell shrinkage at 4 to 16 uM measured after 48 hrs by Hoechst 33342 staining based fluorescence microscopic analysis; assay type: functional
HepG2 [16] = experiment: Induction of apoptosis in human HepG2 cells assessed as apoptotic cells at 8 uM measured after 48 hrs by Annexin V-APC staining based flow cytometry (reference value: 5.37%); assay type: functional
[17] = Drug uptake in cytoplasm of human HepG2 cells at 2 to 16 uM by confocal microscopic analysis; assay type: ADME, subcellular; settings: hepg2, 16 µM
HepG2 [18] = experiment: Induction of morphological changes in human HepG2 cells assessed as nuclear deformation at 2 to 16 uM by confocal microscopic analysis; assay type: functional, cell-based

IC50 (DNA topoisomerase II [1]) [µM]	IC50 (DNA topoisomerase II [2]) [µM]	IC50 (DNA topoisomerase II [3]) [µM]	IC50 (DNA topoisomerase II [4]) [µM]	IC50 (DNA topoisomerase II [5]) [µM]	IC50 (DNA topoisomerase II [6]) [µM]	Drug uptake [14]	Drug uptake [17]	Compound	IC50 (L02) [µM]	Activity (HepG2 [7])	Activity (HepG2 [8]) [%]	Activity (HepG2 [9])	Activity (HepG2 [10]) [%]	Activity (HepG2 [11])	Activity (HepG2 [12]) [%]	Activity (HepG2 [13])	Activity (HepG2 [15])	Activity (HepG2 [16]) [%]	Activity (HepG2 [18])
29.8	12.8	45.6	43.7	24.1	16.7	–	–	COc1ccc(C(O)c2cc(O)c3c(c2O)C(=O)c2ccccc2C3=O)cc1Br (centres undefined)	> 50	–	–	–	–	–	–	–	–	–	–
42.3	44.7	> 50	> 50	35.8	23.6	–	–	Cc1ccc(C(O)c2cc(O)c3c(c2O)C(=O)c2ccccc2C3=O)s1 (centres undefined)	> 50	–	–	–	–	–	–	–	–	–	–
18.4	23.9	17.5	33.3	41.5	19.7	–	–	O=C1c2ccccc2C(=O)c2c(O)c(C(O)c3cc(Br)cs3)cc(O)c21 (centres undefined)	> 50	–	–	–	–	–	–	–	–	–	–
48.1	25.1	39.4	43.9	23	14.4	–	–	O=C1c2ccccc2C(=O)c2c(O)c(C(O)c3ccc(Br)s3)cc(O)c21 (centres undefined)	> 50	–	–	–	–	–	–	–	–	–	–
21.2	24.4	29.3	47.2	33	17.75	–	–	O=C1c2ccccc2C(=O)c2c(O)c(C(O)c3ccc(Cl)s3)cc(O)c21 (centres undefined)	> 50	–	–	–	–	–	–	–	–	–	–
36.2	37.9	> 50	45	28.9	16.6	–	–	O=C1c2ccccc2C(=O)c2c(O)c(C(O)c3cccs3)cc(O)c21 (centres undefined)	> 50	–	–	–	–	–	–	–	–	–	–
> 50	> 50	> 50	> 50	> 50	> 50	–	–	O=C1c2ccccc2C(=O)c2c(O)c(C(O)c3ccsc3)cc(O)c21 (centres undefined)	> 50	–	–	–	–	–	–	–	–	–	–

Continued, compound first:

Compound	IC50 (DNA topoisomerase II [1]) [µM]	IC50 (DNA topoisomerase II [2]) [µM]	IC50 (DNA topoisomerase II [3]) [µM]	IC50 (DNA topoisomerase II [4]) [µM]	IC50 (DNA topoisomerase II [5]) [µM]	IC50 (DNA topoisomerase II [6]) [µM]	Drug uptake [14]	Drug uptake [17]	IC50 (L02) [µM]	Activity (HepG2 [7])	Activity (HepG2 [8]) [%]	Activity (HepG2 [9])	Activity (HepG2 [10]) [%]	Activity (HepG2 [11])	Activity (HepG2 [12]) [%]	Activity (HepG2 [13])	Activity (HepG2 [15])	Activity (HepG2 [16]) [%]	Activity (HepG2 [18])
CSc1ccc(C(c2cc(O)c3c(c2O)C(=O)c2ccccc2C3=O)N(CCCl)CCCl)cc1 (centres undefined)	> 50	20.6	39.3	41.4	> 50	15.4	–	–	> 50	–	–	–	–	–	–	–	–	–	–
COc1cccc2c1C(=O)c1c(O)c3c(c(O)c1C2=O)C[C@@](O)(C(=O)CO)C[C@@H]3O[C@H]1C[C@H](N)[C@H](O)[C@H](C)O1 [DOXORUBICIN]	3.3	2.6	1.5	3.8	2.3	1.2	–	–	3.5	–	–	–	–	–	–	–	–	–	–
CC(C)=CC[C@@H](O)C1=CC(=O)c2c(O)ccc(O)c2C1=O [SHIKONIN]	6.7	6.2	5.7	7.8	16	12.5	–	–	13	–	–	–	–	–	–	–	–	–	–
CSc1ccc(C(O)c2cc(O)c3c(c2O)C(=O)c2ccccc2C3=O)cc1 (centres undefined)	> 50	> 50	> 50	> 50	> 50	> 50	–	–	> 50	–	–	–	–	–	–	–	–	–	–
O=C1c2ccccc2C(=O)c2c(O)ccc(O)c21 [QUINIZARIN]	> 200	> 200	> 200	> 200	> 200	> 200	–	–	> 200	–	–	–	–	–	–	–	–	–	–
CCOc1ccc(C(O)c2cc(O)c3c(c2O)C(=O)c2ccccc2C3=O)cc1 (centres undefined)	> 50	> 50	> 50	> 50	> 50	> 50	–	–	> 50	–	–	–	–	–	–	–	–	–	–
O=C1c2ccccc2C(=O)c2c(O)c(C(c3ccsc3)N(CCCl)CCCl)cc(O)c21 (centres undefined)	19.3	13.7	22.5	22.4	21.9	23.1	–	–	35.4	–	–	–	–	–	–	–	–	–	–
O=C1c2ccccc2C(=O)c2c(O)c(C(c3ccc(OC(F)(F)F)cc3)N(CCCl)CCCl)cc(O)c21 (centres undefined)	> 50	> 50	42.8	34.8	> 50	11.3	–	–	> 50	–	–	–	–	–	–	–	–	–	–
O=C1c2ccccc2C(=O)c2c(O)c(C(O)c3ccc(Cl)cc3Cl)cc(O)c21 (centres undefined)	18.9	12.5	28.4	34.6	17.8	12.7	Active	Active	> 50	Active	7.38	Active	32.87	Active	40.13	Dose-dependent effect	Active	11.56	Active
O=C1c2ccccc2C(=O)c2c(O)c(C(O)c3ccc(C(F)(F)F)cc3)cc(O)c21 (centres undefined)	20.7	14.9	27.4	38.1	23.3	13.7	–	–	> 50	–	–	–	–	–	–	–	–	–	–
O=C1c2ccccc2C(=O)c2c(O)c(C(O)c3ccc(OC(F)(F)F)cc3)cc(O)c21 (centres undefined)	32	26.5	30.5	39.5	22.3	13.7	–	–	> 50	–	–	–	–	–	–	–	–	–	–
O=C1c2ccccc2C(=O)c2c(O)c(C(c3ccc(C(F)(F)F)cc3)N(CCCl)CCCl)cc(O)c21 (centres undefined)	> 50	> 50	> 50	> 50	> 50	16.1	–	–	> 50	–	–	–	–	–	–	–	–	–	–
N#Cc1ccc(C(O)c2cc(O)c3c(c2O)C(=O)c2ccccc2C3=O)cc1 (centres undefined)	14.9	12.8	28.6	26.9	17.6	12.6	–	–	> 50	–	–	–	–	–	–	–	–	–	–
COc1ccc(C(O)c2cc(O)c3c(c2O)C(=O)c2ccccc2C3=O)cc1OC (centres undefined)	> 50	> 50	> 50	> 50	> 50	> 50	–	–	> 50	–	–	–	–	–	–	–	–	–	–
